Experimental data taken from ChEMBL document CHEMBL3091358, “Structures of human acetylcholinesterase bound to dihydrotanshinone I and territrem B show peripheral site flexibility” (ACS Med Chem Lett, 2013).

How the values were obtained:
[1] = target: T1, Acetylcholinesterase (Homo sapiens, UniProt P22303); assay: Inhibition of acetylcholinesterase (unknown origin)
[2] = target: T1, Acetylcholinesterase; assay: Inhibition of human acetylcholinesterase

T1 sequence (P22303 whole entry): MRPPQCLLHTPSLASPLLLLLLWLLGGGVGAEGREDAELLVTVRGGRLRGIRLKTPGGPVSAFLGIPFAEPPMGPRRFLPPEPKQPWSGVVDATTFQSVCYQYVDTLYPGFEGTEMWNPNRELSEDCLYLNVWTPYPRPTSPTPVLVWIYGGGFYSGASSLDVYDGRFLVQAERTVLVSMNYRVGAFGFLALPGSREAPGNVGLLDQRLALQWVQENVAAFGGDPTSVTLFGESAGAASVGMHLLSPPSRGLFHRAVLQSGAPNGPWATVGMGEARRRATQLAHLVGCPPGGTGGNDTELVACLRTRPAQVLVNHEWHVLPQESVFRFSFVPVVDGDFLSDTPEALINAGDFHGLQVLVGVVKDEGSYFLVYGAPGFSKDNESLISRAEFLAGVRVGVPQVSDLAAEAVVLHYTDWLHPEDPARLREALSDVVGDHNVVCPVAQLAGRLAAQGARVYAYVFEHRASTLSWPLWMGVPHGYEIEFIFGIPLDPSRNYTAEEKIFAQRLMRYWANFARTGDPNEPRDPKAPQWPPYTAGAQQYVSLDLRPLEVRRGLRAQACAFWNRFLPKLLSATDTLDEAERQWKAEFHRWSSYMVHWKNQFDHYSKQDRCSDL

## Cc1cccc2c3c(ccc12)C1=C(C(=O)C3=O)[C@@H](C)CO1 [DIHYDROTANSHINONE I]
[1]
  IC50: 1000 nM
[2]
  Ki: 600 nM

## Cc1coc2c1C(=O)C(=O)c1c-2ccc2c1CCCC2(C)C [TANSHINONE IIA]
[1]
  IC50: > 140000 nM

## Cc1coc2c1C(=O)C(=O)c1c-2ccc2c(C)cccc12 [TANSHINONE I]
[1]
  IC50: > 50000 nM
